These results are taken from patent US20250108070A1, “METHOD FOR REPROGRAMMING CD8+ T CELLS TO ENHANCE THEIR THERAPEUTIC POTENTIAL AND APPLICATIONS THEREOF” (INSTITUT PASTEUR, priority 2022, published 2025).

Experiment [1] concerns CD8+ T cells from people without HIV. Nature of the experiment: In vitro reprogramming of bulk CD8+ T cells, phenotype without further stimulation. Format: cell-based, human. As to conditions: BIO and TWS119 in parallel, 3 μM, 12 hs. The procedure:
FIG. 1. Induction of stem-like CD8^+ T cells with high survival capacity and polyfunctionality by in vitro reprogramming. A. CD8^+ T cells from people without HIV were incubated with medium, vehicle control, or a GSK3 inhibitor, for 12 hs and the phenotype was evaluated by flow cytometry. A representative donor from a total of 4 is shown. B. Frequencies of CD8^+ T cell subpopulations after each treatment. C. Fold change of CD8^+ T cell subpopulations after treatment with vehicle control or a GSK3 inhibitor, relative to medium alone condition (n=4). D. Expression of TCF-1 in CD8^+ T cell subpopulations (n=4). E. The expression of the indicated markers in cells pre-treated with vehicle control or a GSK3 inhibitor was evaluated by flow cytometry. The fold change in the expression induced by 48 hs anti-CD3/CD28 stimulation, relative to unstimulated cells, is shown (n=5). F. Left: Flow cytometry analysis of dead cells (Aqua Live/Dead^+) among total and T-bet+CD8^+ T cells. Right: Fold change in dead CD8^+ T cells induced by anti-CD3/CD28 stimulation, relative to the unstimulated condition (n=5). G. Frequencies of granzyme B^+, TL-2^+, IFN-γ^+, and TNF-α^+CD8^+ T cells after anti-CD3/CD28 stimulation. H. Expression of 1 to 4 functions in CD8^+ T cells after anti-CD3/CD28 stimulation (n=5). I. After reprogramming with the GSK3 inhibitor, CD8^+ T cells were stimulated for 48 hs with anti-CD3/CD28, followed by wash and resting for 5 days. Then, cells were restimulated for another 48 hs with anti-CD3/CD28. Left: Flow cytometry analysis of proliferating (CFSE dilution) CD8^+ T cells. Right: Frequencies of CD8^+ T cells with 0, 1-3 or ≥4 cell divisions (n=9). J. Frequency of the total HCMV pp65-specific CD8^+ T cell response (IFN-γ^+ or CD107a^+ or TNF-α^+), after vehicle control or GSK3 inhibitor treatment, followed by HCMV pp65 peptides stimulation for 6 hs (n=6). K. Frequencies of CD8^+ T cell subpopulations among HCMV pp65-specific CD8^+ T cells (n=6). L. Expression of IFN-γ, CD107a, and TNF-α in HCMV pp65-specific CD8^+ T cells (n=6). M. Frequency of the total HCMV pp65-specific CD8^+ T cell response after HCMV pp65 peptides stimulation for 6 days (n=6). *P<0.05; **P≤0.01. NS: Not statistically significant. TSCM: Stem cell memory; TCM: Central memory; TTM: Transitional memory; TEM: Effector memory; TTE: Terminal effector.
FIG. 2. A. Flow cytometry gating strategy used to identify CD8^+ T cell subpopulations: Naïve, Stem cell memory (TSCM), Central memory (TCM), Transitional memory (TTM), Effector memory (TEM), and Terminal effector (TTE). B. Expression of CCR7, CD27 and TCF-1 in total CD8^+ T cells after treatment with vehicle control, or the GSK3 inhibitors BIO or TWS119, for 12 hs. The median fluorescence intensity of each marker is depicted. C. Fold change in TSCM, TCM and TEM cells induced by BIO or TWS119, relative to vehicle control (n=3 people without HIV). D. Fold change in T-bet^+ cells among TSCM and TCM induced by anti-CD3/CD28 stimulation, relative to vehicle control, in cells previously treated with vehicle control, BIO or TWS119 (n=3). E. Fold change in T-bet^+ cells among naïve/TSCM induced by anti-CD3/CD28 stimulation (0.2 and 1 μg/mL), relative to unstimulated cells, previous treatment with vehicle control or the GSK3 inhibitor (n=3). F. Fold change in T-bet^+ cells among each CD8^+ T cell subpopulation induced by anti-CD3/CD28+ICAM-1 stimulation, relative to unstimulated cells (n=5). G. Frequency of IL-2^+TNF-α^+ cells among each CD8^+ T cell subpopulation after anti-CD3/CD28+ICAM-1 stimulation (n=5). H. Correlation between the frequency of PD-1^+LAG-3^+TIM3^+TIGIT^+CD8^+ T cells and the proportion of CD8^+ T cells with ≥4 cell divisions after restimulation (n=6). I. After reprogramming with the GSK3 inhibitor, CD8^+ T cells were left unstimulated, stimulated once for 48 hs with anti-CD3/CD28, or stimulated twice with anti-CD3/CD28. The expression of T-bet in TCM and TTM cells is shown (n=5). *P<0.05. […]

Experiment [2] relates to GSK3. The note with it: cited from earlier work.
Experiment [3] relates to GSK3. The note with it: reference 42; cited from earlier work.

In the case of `Nc1cccc(-c2cc3c(Oc4cccc(O)c4)ncnc3[nH]2)c1` [TWS119, 3-[[6-(3-aminophenyl)-7H-pyrrolo[2,3-d]pyrimidin-4-yl]oxy]phenol], in experiment [1] (FIG. 2B), the “CCR7, CD27, and TCF-1” value is “induced”. In addition, in experiment [1] (FIG. 2C), the TEM cells entry is “decrease”; the “TSCM and TCM cells” value is recorded as “increase”. The IC50 (commonly the point on the concentration scale where inhibition reaches its midpoint) in the experiment on GSK3 [2] (GSK3 inhibitor, review Front. Mol. Neurosci. 2011) is 0.6 to 7 nM. Further, the “selectivity of inhibition of GSK3” value in the experiment on GSK3 [2] is listed as “highly selective inhibitors”. Also, the Wnt/β-catenin/TCF-1 pathway result in the experiment on GSK3 [3] is recorded as “induce the activation”.
